The record followed here is patent US20070166710A1, “Methods for inhibiting adipogenesis and for treating type 2 diabetes” (priority 2003, published 2007).

The test system of one assay is Foxa-2 expression. As to the kind of experiment: Foxa-2 expression in primary adipocytes from lean wildtype C57B6 mice, semiquantitative RT-PCR. Format: cell-based. The settings on record: insulin 100 nM, 60 hours. As for the experimental part: Total RNA was extracted from cells and EBs using Trizol following manufacturer's instructions (Life Technologies, Inc.). […] The cDNAs provided templates for polymerase chain reactions (PCRs) using specific primers at annealing temperatures ranging between 60 and 65° C. in the presence of dNTPs, [α^-32P]dCTP, and Taq DNA polymerase. […] Primary adipocytes were isolated as described by Rodbell (1964) J. Biol. Chem. 239:375-380. […] (1995) J. Cell. Biochem. 58:435-463. The reaction was stopped by spinning through dinonyl […] oil and the radioactivity quantified by scintillation counting. […] (1995) Am. J. Physiol. 268:[…]-[…]. Fatty acid de novo synthesis was analyzed by saponification of total lipids as described by […] et al. (1978) J. […] Incorporation into lipid glycerol was calculated by subtracting fatty acid radioactive label from total lipid radioactive label. Primary adipocytes were isolated from lean wildtype C57B6 mice and cultured in MEM medium (control) or in the presence of insulin (100 nM; 24 hours and 60 hours, respectively) or rosiglitazone (50 μM), WY14,643 (100 μM), dexametason (1 μM), leptin (100 ng/ml), TNF-α (5 ng/ml), adiponectin (500 ng/ml) and glucagons (100 nM) for 60 hours. Gene expression was measured by semiquantitative RT-PCR. Steady state mRNA levels of Hprt were used as a control and indicate that each lane contains similar amounts of mRNA. Reactions were also assayed in the absence of reverse transcriptase, showing that mRNA was not contaminated with genomic DNA.

A further assay concerns Fxr. As to the kind of experiment: Fxr expression in primary adipocytes of lean mice cultured with insulin. Format: cell-based. To be noted: insulin 50 nM, 60 hours.
Another assay concerns Foxa-1, 2 and 3. As to the kind of experiment: Expression levels of Foxa-1, 2 and 3 in primary hepatocytes (RT-PCR). Format: cell-based. The settings on record: insulin-treated cells.
A further assay has as its system Foxa-2. As to the kind of experiment: Immunoblot of phospho-TI56 Foxa-2 in livers after intraportal insulin. Format: in vivo, mice. As for the experimental part:
FIG. 15a is an immunoblot of Foxa-2 and Foxo-1 in liver nuclear extracts of fed (n=3) and starved (n=3) mice. Anti-TATA binding protein (Tbp) antibodies were used as a loading control. FIGS. 15b and 15c are immunoblots of Foxa-2 and Foxo-1 in nuclear extracts of livers from mice perfused with different concentrations of insulin. FIG. 15d is a Western blot of Foxa-2 immunoprecipitated with anti-Foxa-2 antibodies from whole cell extracts of livers obtained from fasted mice 30 minutes after injection of 10 ng insulin or PBS in the portal vein. Samples (n=3 for each group) were analyzed by immunoblot analysis with an antibody directed against phospho-TI56 Foxa-2 (top panel) or with an antibody directed against total Foxa-2 protein (bottom panel). […]
The role of Foxa-2 in the regulation of liver gene expression by nutritional status was examined by determining the intracellular localization of Foxa-2 in fasted and fed mice by Western blotting of Foxa-2 in liver nuclear extracts and by immunohistochemistry. […] Strong Foxa-2 immunostaining was detected in hepatocyte nuclei of control (PBS) mice. […] Foxa-2 protein levels were measured in liver nuclei of C57/B6 mice that were perfused with a buffer containing a range of insulin concentrations that included fasting and postprandial insulin levels (0.2 and 4.0 ng/ml, respectively). […] Foxa-2 levels were determined by immunoblotting. […]
In general terms: A western blot detects proteins with antibodies after separation by electrophoresis.

On to “insulin: Insulin was from Sigma; hormone used as stimulus”, for which, in the assay on Foxa-2 expression, the Foxa-2 expression entry is recorded as “strong induction”. Also, the Fxr expression entry with Fxr was “induced”. Also, the “expression levels of Foxa-1, 2 and 3” value in the assay with Foxa-1, 2 and 3 is reported as “did not significantly change”. Moreover, in the assay with Foxa-2 (intraportal injection of insulin vs PBS), the “phosphorylated Foxa-2 detected by anti-phospho TI56 peptide antibody” value is given as “recognized phosphorylated Foxa-2”. Besides, in the assay with Foxa-2 (treated vs untreated livers), the “Foxa-2 protein levels (anti-Foxa-2 antibodies)” value is on record as “the same”.
